Assay results published in patent US20060134767A1, “Mitotic kinesin binding site” (priority 2002, published 2006).

Biological target: T1, KSP(367H) (Homo sapiens, UniProt P52732)
T1 construct: Add 18.75 μl of 4 μM stock nucleotide-free KSP(367H)
T1 sequence (P52732 1-367 limits assumed): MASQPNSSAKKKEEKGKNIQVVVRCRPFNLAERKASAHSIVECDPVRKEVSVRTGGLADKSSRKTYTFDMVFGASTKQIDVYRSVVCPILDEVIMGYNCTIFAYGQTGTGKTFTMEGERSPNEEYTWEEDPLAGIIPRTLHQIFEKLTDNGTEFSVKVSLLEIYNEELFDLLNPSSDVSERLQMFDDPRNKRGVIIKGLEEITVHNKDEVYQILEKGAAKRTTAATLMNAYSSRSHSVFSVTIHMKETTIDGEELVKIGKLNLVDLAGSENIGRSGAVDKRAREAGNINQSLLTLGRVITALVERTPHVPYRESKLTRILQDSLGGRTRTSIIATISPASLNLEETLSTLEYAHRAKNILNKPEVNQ
Assay: Fluorescence of Trp127 of KSP -/+ inhibitors (in vitro binding assay for the novel KSP binding site)
Description: The binding of a ligand to the novel binding site of the instant invention and the formation of the novel binding pocket as a result can als6 be indirectly assessed by spectroscopically determining the shift in the fluorescence of the amino acid 127 tryptophan residue. Thus it has been discovered that the fluorescent emission of Trp127 is modulated when KSP is treated with one of the inhibitors described above in the presence of a nucleotide or nucleotides.
A further embodiment of the instant invention is an in vitro assay for the determination of binding of a test compound to the novel KSP binding site described herein. The assay comprises the steps of: • 1. contacting KSP with the test compound and a nucleotide and measuring the fluorescence of the mixture at the peak emission wavelength for Trp127 in KSP; • 2. contacting KSP with a nucleotide and measuring the fluorescence of the mixture at the peak emission wavelength for Trp127 in KSP; and • 3. comparing the fluorescence of the mixture of KSP, the test compound and the nucleotide with the fluorescence of the mixture of KSP with the nucleotide alone.
In another embodiment of the in vitro fluorescence assay the nucleotide is selected from ADP and AMPPNP (a non-hydrolysable analog of ATP, adenosine 5′-(β,γ-imido)triphosphate tetralithium salt hydrate).
• 2× kinesin buffer: 160 mM K-Hepes, 2 mM MgCl2, 2 mM EGTA, 2 mM DTT (added fresh daily), and 100 mM KCl, pH 6.8. • Nucleotide: nucleotide is resuspended to 200 mM in 50 mM K-Hepes (pH 6.8). • Nucleotide is diluted 1:1 with 200 MM MgCl2 to a stock concentration of 100 mM of 1:1 nucleotide:MgCl2. • Cuvette volume=300 μl Methods • 1) Add 281 μl of 1× kinesin buffer, ±nucleotide, and H2O (Nucleotide=none, 1 mM AMPPNP, or 1 mM ADP (final concentration)). • 2) Add 18.75 μl of 4 μM stock nucleotide-free KSP(367H). • 3) Add compound sequentially from DMSO stock (with all the volume of all additions ≦0.6 μl). • 4) Measure fluorescence after each addition (starting with buffer only). • 5) Example titration for Compound 8-1 with KSP(367H)ADP: 281 μl of 1× kinesin buffer+1 mM ADP: • add 250 nM KSP (18.75 μl of 4 uM nucleotide-free stock) • add 1 nM Compound 8-1 (1 nMf) (addition of 0.3 μl of 0.001 mM stock) • add 2 nM Compound 8-1 (3 nMf) (addition of 0.6 μl of 0.001 mM stock) • add 4 nM Compound 8-1 (7 nMf) (addition of 0.12 μl of 0.01 mM stock) • add 3 nM Compound 8-1 (10 nMf) (addition of 0.09 μl of 0.01 mM stock) • add 20 nM Compound 8-1 (30 nMf) (addition of 0.6 μl of 0.01 mM stock) • add 40 nM Compound 8-1 (70 nMf) (addition of 0.12 μl of 0.1 mM stock) • add 30 nM Compound 8-1 (100 nMf) (addition of 0.09 μl of 0.1 mM stock) • add 200 nM Compound 8-1 (300 nMf) (addition of 0.6 μl of 0.1 mM stock) • add 400 nM Compound 8-1 (700 nMf) (addition of 0.12 μl of 1 mM stock) • add 300 nM Compound 8-1 (1000 nMf) (addition of 0.09 μl of 1 mM stock) • add 2000 nM Compound 8-1 (3000 nMf) (addition of 0.6 μl of 1 mM stock). • 6) After each addition, measure steady-state fluorescence under the following conditions: • λex=[…], λem=342-346 nm, band width=3 nm ex/3 nm em, wavelength increment=0.5 nm, integration time=2 s. • 7) Repeat the same titration series: • in the absence of KSP (to determine compound-related background), and in the absence of KSP, but in the presence of 1 μM L-tryptophan (to determine compound-related effects on the amino acid itself). Calculations
At the peak emission wavelength for W127 in KSP(367H) (=344 nm) measure the compound emission in kinesin buffer as a function of [compound]; measure fluorescence of L-tryptophan as a function of [compound]; measure fluorescence of KSP(367H) as a function of [compound]; correct KSP(367H) fluorescence for its decrease over time (due to losses of protein to the cuvette); subtract compound emission from L-tryptophan emission; subtract compound emission from KSP(367H) emission. […]

[1] = in the absence of the nucleotide
[2] = in the presence of ADP or AMPPNP

fluorescence of Trp127 [1]	fluorescence of Trp127 [2]	SMILES
does not cause a decrease	dose dependent decrease	CCOC(=O)C1=C(C)NC(=S)NC1c1cccc(O)c1 (single isomer, unassigned; (+)) [Compound 5-2b, (+)-4-(3-Hydroxyphenyl)-6-methyl-2-thioxo-1,2,3,4-tetrahydro-4H-pyrimidin-5-carboxylic acid ethyl ester, reference compound]
does not cause a decrease	dose dependent decrease	CCC(c1nc2sccc2c(=O)n1Cc1ccccc1)N(CCN(C)C)Cc1ccc(Br)cc1 (stereo not drawn) [Compound 8-1, 3-benzyl-2-(1-{(4-bromobenzyl)[2-(dimethylamino)ethyl]amino}propyl)thieno[2,3-d]pyrimidin-4(3H)-one]

SMILES	fluorescence of Trp127 [1]	fluorescence of Trp127 [2]
CC(=O)N1N=C(c2ccccc2Cl)CC1c1cccc(O)c1 (stereo not drawn) [Compound 1-7, 3-[1-acetyl-3-(2-chlorophenyl)-4,5-dihydro-1H-pyrazol-5-yl]phenol]	does not cause a decrease	dose dependent decrease
